Target: T1, HIV-integrase (Human immunodeficiency virus type 1 group M subtype B, UniProt P12497)
T1 construct: Recombinant integrase (0.26 ng) was incubated with the beads
Experiment: HIV-Integrase Inhibition Activity (SPA strand transfer assay)
Assay type: biochemical
Conditions: recombinant integrase, biotin labeled substrate DNA on SPA beads, P33 labeled target DNA
Procedure: HIV-Integrase Inhibition Activity. To evaluate in-vitro activity against HIV-integrase, 5 pmole of biotin labeled substrate DNA was bound to 100 μg of Streptavidin coated PVT SPA beads (Amersham Pharmacia Biotech). Recombinant integrase (0.26 ng) was incubated with the beads for 90 min at 37° C. Unbound enzyme was removed by washing the complex followed by addition of inhibitors and 0.1 fmol of P33 labeled target DNA. The reaction was stopped by adding EDTA to a final concentration of 10 mM. Samples were counted in TopCountNXT (Packard) and the CPM was used as a measure of integration. The reaction condition was as described in A. Engleman and R. Craige, J. Virol. 69, 5908-5911 (1995). The sequences of substrate and target DNA were described in Nucleic Acid Research 22, 1121-1122 (1994). Activity equal to A refers to a compound having IC50=0.002 to 0.10 μM while B and C denote compounds having IC50=0.1 to 1.0 μM and IC50≧1.0 μM respectively.

COC(C)(C)c1nc(C(=O)NCc2ccc(F)cc2)c(O)c(=O)n1C [Example 1, N-(4-Fluorobenzyl)-5-hydroxy-2-(2-methoxypropan-2-yl)-1-methyl-6-oxo-1,6-dihydropyrimidine-4-carboxamide]
IC50: 2 to 100 nM

Cn1c(C2(C)CCCO2)nc(C(=O)NCc2ccc(F)cc2)c(O)c1=O (stereo not drawn) [Example 9]
IC50: 2 to 100 nM

Cn1c(C(C)(C)C)nc(C(=O)NCc2ccc(F)cc2)c(O)c1=O [Example 4, 2-tert-Butyl-5-hydroxy-1-methyl-6-oxo-1,6-dihydro-pyrimidine-4-carboxylic acid 4-fluoro-benzylamide]
IC50: 2 to 100 nM

Cn1c(C2(C)CCCS2)nc(C(=O)NCc2ccc(F)cc2S(C)(=O)=O)c(O)c1=O (stereo not drawn) [Example 8]
IC50: 2 to 100 nM

COCCOC1(c2nc(C(=O)NCc3ccc(F)cc3S(C)(=O)=O)c(O)c(=O)n2C)CCC1 [Example 17, N-(4-Fluoro-2-(methylsulfonyl)benzyl)-5-hydroxy-2-(1-(2-methoxyethoxy)cyclobutyl)-1-methyl-6-oxo-1,6-dihydropyrimidine-4-carboxamide]
IC50: 2 to 100 nM

Cn1c(C2(OCCO)CCC2)nc(C(=O)NCc2ccc(F)cc2)c(O)c1=O [Example 12, 5-Hydroxy-2-[1-(2-hydroxy-ethoxy)-cyclobutyl]-1-methyl-6-oxo-1,6-dihydro-pyrimidine-4-carboxylic acid 4-fluoro-benzylamide]
IC50: 2 to 100 nM

Cn1c(C2(OCCO)CCC2)nc(C(=O)NCc2ccc(F)cc2-n2cncn2)c(O)c1=O [Example 13]
IC50: 2 to 100 nM

COC(C)(C)c1nc(C(=O)NCc2ccc(F)c(C)c2)c(O)c(=O)n1C [Example 2]
IC50: 2 to 100 nM

Cn1c(C2(C)CCCO2)nc(C(=O)NCc2ccc(F)cc2S(C)(=O)=O)c(O)c1=O (stereo not drawn) [Example 11]
IC50: 2 to 100 nM

Cn1c(C2(C)CCCS2)nc(C(=O)NCc2ccc(F)cc2-n2cncn2)c(O)c1=O (stereo not drawn) [Example 7, N-(4-Fluoro-2-(1H-1,2,4-triazol-1-yl)benzyl)-5-hydroxy-1-methyl-2-(2-methyl-tetrahydrothiophen-2-yl)-6-oxo-1,6-dihydropyrimidine-4-carboxamide]
IC50: 2 to 100 nM

Cn1c(C2(C)CCCO2)nc(C(=O)NCc2ccc(F)cc2-n2cncn2)c(O)c1=O (stereo not drawn) [Example 10]
IC50: 2 to 100 nM

COCCOC1(c2nc(C(=O)NCc3ccc(F)cc3-n3cncn3)c(O)c(=O)n2C)CCC1 [Example 16, N-(4-Fluoro-2-(1H-1,2,4-triazol-1-yl)benzyl)-5-hydroxy-2-(1-(2-methoxyethoxy)cyclobut-yl)-1-methyl-6-oxo-1,6-dihydropyrimidine-4-carboxamide]
IC50: 2 to 100 nM

CSCCOC1(c2nc(C(=O)NCc3ccc(F)cc3-n3cncn3)c(O)c(=O)n2C)CCC1 [Example 14, N-(4-Fluoro-2-(1H-1,2,4-triazol-1-yl)benzyl)-5-hydroxy-1-methyl-2-(1-(2-(methylthio)-ethoxy)cyclobutyl)-6-oxo-1,6-dihydropyrimidine-4-carboxamide]
IC50: 2 to 100 nM

COCCOC1(c2nc(C(=O)NCc3ccc(F)cc3S(=O)(=O)N(C)C)c(O)c(=O)n2C)CCC1 [Example 18]
IC50: 2 to 100 nM

CSCCCCC(C)(C)c1nc(C(=O)NCc2ccc(F)cc2)c(O)c(=O)n1C [Example 5]
IC50: 2 to 100 nM

CC(C)(C)c1nc(O)c(O)c(C(=O)NCc2ccc(F)cc2)n1 [Example 3, 2-tert-Butyl-5-hydroxy-6-oxo-1,6-dihydro-pyrimidine-4-carboxylic acid 4-fluoro-benzylamide]
IC50: 2 to 100 nM

COCCOC1(c2nc(C(=O)NCc3ccc(F)cc3)c(O)c(=O)n2C)CCC1 [Example 15, N-(4-Fluorobenzyl)-5-hydroxy-2-(1-(2-methoxyethoxy)cyclobutyl)-1-methyl-6-oxo-1,6-dihydropyrimidine-4-carboxamide]
IC50: 2 to 100 nM

Cn1c(C2(C)CCCS2)nc(C(=O)NCc2ccc(F)cc2)c(O)c1=O (stereo not drawn) [Example 6, N-(4-Fluorobenzyl)-5-hydroxy-1-methyl-2-(2-methyl-tetrahydrothiophen-2-yl)-6-oxo-1,6-dihydropyrimidine-4-carboxamide]
IC50: 2 to 100 nM

Source: patent publication US20070129379A1 (priority 2005, published 2007)
